Laboratory results taken from patent US20040154048A1, “Activation of nuclear transfer embryos” (priority 2001, published 2004).
Marks after values point to notes of the source that are not given here.

Key:
IVM porcine oocytes = assay: Parthenogenetic activation of IVM porcine oocytes, development to blastocyst; format: cell-based; conditions: 5 μM ionomycin 5 min in mTALP-PVA, 6-DMAP +
Protocol: The preparation of in vitro matured (IVM) oocytes was essentially as described previously (Grupen et al, (1997) Reproduction Fertility Development 9:571-575). Ovaries from slaughtered prepubertal gilts were transported to the laboratory in Dulbecco's PBS supplemented with 0.6% (v/v) of an antibiotic solution (CSL Ltd) containing penicillin (10,000 U mL^−1), streptomycin (10,000 μg mL^−1) and fungizone (25 μg mL^−1) and maintained at 38° C. Antral follicles ([…] in diameter) were aspirated using a 21-gauge needle through which constant suction (1 L min^−1) was applied. The follicular contents were pooled in a collection tube. Cumulus-oocyte complexes (COCs) with at least three uniform layers of compact cumulus cells were recovered from the collected fluid, washed three times in OMM199a, transferred to 50 μl droplets (25 COCs per droplet) of OMM199a covered with mineral oil in a petrie dish (Becton Dickinson and Company, Plymouth, England) and incubated at 38.5° C. in a humidified atmosphere of 5% CO2 in air. After twenty two hours of maturation, expanded COCs were washed once in OMM199 without dibutyryl cAMP (OMM199b), transferred to 50 μl droplets of OMM199b and incubated for a further twenty four hours. At the end of the forty six hours maturation interval, the oocytes were treated with 0.5 mg mL^−1 hyaluronidase for one minute and then gently aspirated with a small bore glass pipette to remove the cumulus cells. Oocytes that had extruded a polar body were washed and kept in culture medium prior to activation.
The experiments hereafter were conducted with oocytes rather than nuclear transfer embryos. These experiments are termed parthenogenetic, since they are done without fertilized embryos. Parthenogenetic experiments are used routinely as a model system to investigate NT, largely because of the expense and additional experimental manipulation involved with NT embryos. Parthenogenetic experiments provide very useful information for the development of NT technology, and are directly predictive of NT outcomes.
Oocytes were activated forty six to forty eight hours after the start of maturation. Denuded oocytes that had extruded a polar body were washed and kept in modified TALP-PVA medium supplemented with 3.0 mM Ca-lactate (mTALP-PVA) for approximately one hour prior to activation. Oocytes were transferred to mTALP-PVA containing 5 μM ionomycin for five minutes. Oocytes were then washed twice and incubated in culture medium containing 2 mM 6-DMAP for three hours. The 6-DMAP treated oocytes were then washed twice and transferred to 50 μl droplets of the culture medium under mineral oil. In the ionomycin * treatment oocytes were not washed in media containing 6-DMAP.

porcine oocytes = conditions: ionomycin increased from 5 μM to 15 μM, low calcium levels; cited from earlier work

C[C@H](CCC(=O)O)C[C@H](C)C[C@H](C)C(=O)/C=C(\O)[C@H](C)C[C@H](C)C/C=C/[C@@H](C)[C@@H](O)[C@@H](C)[C@@H](O)C[C@@H]1CC[C@@](C)([C@H]2CC[C@@](C)([C@@H](C)O)O2)O1 [Ionomycin, ionomycin]
Percentage developing to blastocyst, Day 6 (IVM porcine oocytes): 49^c %
Percentage developing to blastocyst, Day 6 (IVM porcine oocytes; listed as Ionomycin*): 1^d %
Percentage developing to blastocyst, Day 7 (IVM porcine oocytes): 51^c %
Percentage developing to blastocyst, Day 7 (IVM porcine oocytes; listed as Ionomycin*): 1^d %
oocytes developing parthenogenetically to blastocyst stage (porcine oocytes): 23%
